Measured values reported in patent publication US6627628B1, “Substituted 4-amino-2-aryl-cyclopenta[d]pyrimidines, their production and use and pharmaceutical preparations containing same” (Aventis Pharma Deutschland, GmbH, priority 1998, dated 2003).

What was measured:
[1] = target: T1, soluble guanylate cyclase (sGC) (Bos taurus, UniProt P16068+P19687); test: Activation of soluble guanylate cyclase (cGMP enzyme immunoassay); assay type: biochemical; conditions: sGC isolated from bovine lung; test substance 50 μM; 5% DMSO; 37° C., 15 to 20 minutes; [cGMP]test substance/[cGMP]control (basal enzyme activity)
T1 construct: The sGC employed had been isolated from bovine lung; from tissue; host or cells: bovine lung
T1 sequence (P19687 1-691): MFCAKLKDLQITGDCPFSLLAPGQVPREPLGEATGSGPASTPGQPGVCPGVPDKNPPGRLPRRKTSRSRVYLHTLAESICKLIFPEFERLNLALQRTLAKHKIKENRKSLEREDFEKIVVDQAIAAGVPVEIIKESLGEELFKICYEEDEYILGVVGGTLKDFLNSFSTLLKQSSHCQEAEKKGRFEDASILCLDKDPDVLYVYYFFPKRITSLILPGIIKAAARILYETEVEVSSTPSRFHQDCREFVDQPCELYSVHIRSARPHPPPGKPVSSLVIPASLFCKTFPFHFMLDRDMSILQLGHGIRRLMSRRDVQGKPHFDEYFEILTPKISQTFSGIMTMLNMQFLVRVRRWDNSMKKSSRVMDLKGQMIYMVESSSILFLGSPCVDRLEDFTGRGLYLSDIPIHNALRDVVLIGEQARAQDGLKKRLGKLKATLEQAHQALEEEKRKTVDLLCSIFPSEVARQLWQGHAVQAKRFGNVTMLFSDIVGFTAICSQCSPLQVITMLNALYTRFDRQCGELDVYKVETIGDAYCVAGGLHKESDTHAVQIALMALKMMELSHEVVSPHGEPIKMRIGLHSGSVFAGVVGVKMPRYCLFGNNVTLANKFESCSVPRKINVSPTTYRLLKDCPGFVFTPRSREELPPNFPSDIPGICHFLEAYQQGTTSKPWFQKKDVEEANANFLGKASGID
T1 sequence (P16068 1-619): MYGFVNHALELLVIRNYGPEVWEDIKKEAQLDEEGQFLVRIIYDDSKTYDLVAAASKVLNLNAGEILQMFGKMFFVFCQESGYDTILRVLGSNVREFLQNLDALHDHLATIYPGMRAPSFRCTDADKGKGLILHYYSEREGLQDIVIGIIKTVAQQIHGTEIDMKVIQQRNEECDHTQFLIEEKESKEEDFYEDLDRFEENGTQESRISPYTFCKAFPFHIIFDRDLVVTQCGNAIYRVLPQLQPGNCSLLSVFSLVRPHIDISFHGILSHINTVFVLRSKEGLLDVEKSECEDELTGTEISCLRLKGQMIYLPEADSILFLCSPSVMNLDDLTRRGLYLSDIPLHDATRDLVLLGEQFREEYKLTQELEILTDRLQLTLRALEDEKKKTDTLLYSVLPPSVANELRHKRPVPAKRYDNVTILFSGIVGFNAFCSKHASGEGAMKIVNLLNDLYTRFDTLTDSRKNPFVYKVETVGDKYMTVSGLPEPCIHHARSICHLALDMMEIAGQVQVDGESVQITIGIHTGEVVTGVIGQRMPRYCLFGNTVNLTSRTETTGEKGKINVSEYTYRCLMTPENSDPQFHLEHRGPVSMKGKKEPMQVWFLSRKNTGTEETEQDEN
Procedure: Activation of Soluble Guanylate Cyclase
The activation of soluble guanylate cyclase (sGC), which catalyzes the conversion of guanosine triphosphate (GTP) to cyclic guanosine monophosphate (cGMP) and pyrophosphate, by the compounds according to the invention was quantified with the aid of an enzyme immunoassay (EIA) from Amersham. For this, the test substances were first incubated with sGC in microtiter plates and then the quantity of the resulting cGMP was determined.
The test solutions (100 μl per well) contained 50 mM triethanolamine (TEA) buffer (pH 7.5), 3 mM MgCl2, 3 mM reduced glutathione (GSH), 0.1 mM GTP, 1 mM 3-isobutyl-1-methylxanthine (IBMX), suitably diluted enzyme solution and the test substance or, in the control experiments, solvent. The test substances were dissolved in dimethyl sulfoxide (DMSO) and the solution was diluted with DMSO/water such that the final concentration c of test substance in the test batch was 50 μM. The DMSO concentration in the test batch was 5% (v/v). The reaction was started by addition of the sGC. The reaction mix was incubated at 37° C. for 15 to 20 minutes and then stopped by ice-cooling and addition of the stop reagent (50 mM EDTA, pH 8.0). An aliquot of 50 μl was taken and employed for the determination of the cGMP content using the acetylation protocol of the Amersham cGMP EIA kit. The absorption of the samples was measured at 450 nm (reference wavelength 620 nm) in a microtiter plate reading apparatus. The cGMP concentration was determined by means of a calibration curve, which was obtained under the same experimental conditions.
n-fold stimulation=[cGMP]test substance/[cGMP]control.

SMILES: Clc1ccc(-c2nc3c(c(NC4CCCC4)n2)CCC3)cc1 [Example 15, 2-(4-Chlorophenyl)-4-cyclopentylamino-6,7-dihydro-5H-cyclopenta[d]pyrimidine]
- n-fold stimulation at c = 50 μM [1]: 7 fold

SMILES: CS(=O)(=O)O.O[C@H]1CC[C@H](Nc2nc(-c3cc(Cl)cc(Cl)c3)nc3c2CCC3)CC1 [Example 16, 2-(3,5-Dichlorophenyl)-4-(trans-4-hydroxycyclohexylamino)-6,7-dihydro-5H-cyclopenta[d]pyrimidine methanesulfonic acid salt]
- n-fold stimulation at c = 50 μM [1]: 34 fold

SMILES: CCN(CC)c1nc(-c2cccc(Cl)c2)nc2c1CCC2.Cl [Example 25, 2-(3-Chlorophenyl)-4-diethylamino-6,7-dihydro-5H-cyclopenta[d]pyrimidine hydrochloride]
- melting point: 185 °C
- n-fold stimulation at c = 50 μM [1]: 6 fold

SMILES: CCN(CC)c1nc(-c2ccc(Cl)cc2)nc2c1CCC2.Cl [Example 26, 2-(4-Chlorophenyl)-4-diethylamino-6,7-dihydro-5H-cyclopenta[d]pyrimidine hydrochloride]
- melting point: 185 °C
- n-fold stimulation at c = 50 μM [1]: 5 fold

SMILES: CCCCNc1nc(-c2ccc(Cl)cc2)nc2c1CCC2 [Example 30, 2-(4-Chlorophenyl)-4-butylamino-6,7-dihydro-5H-cyclopenta[d]pyrimidine]
- melting point: 121 °C
- n-fold stimulation at c = 50 μM [1]: 6 fold

SMILES: Clc1cccc(-c2nc3c(c(NC4CCCC4)n2)CCC3)c1 [Example 32, 2-(3-Chlorophenyl)-4-cyclopentylamino-6,7-dihydro-5H-cyclopenta[d]pyrimidine]
- melting point: 129 °C
- n-fold stimulation at c = 50 μM [1]: 15 fold

SMILES: CCCCNc1nc(-c2cccc(Cl)c2)nc2c1CCC2 [Example 33, 2-(3-Chlorophenyl)-4-butylamino-6,7-dihydro-5H-cyclopenta[d]pyrimidine]
- n-fold stimulation at c = 50 μM [1]: 5 fold

SMILES: O[C@H]1CC[C@H](Nc2nc(-c3ccc(Cl)cc3)nc3c2CCC3)CC1 [Example 34, 2-(4-Chlorophenyl)-4-(trans-4-hydroxycyclohexylamino)-6,7-dihydro-5H-cyclopenta[d]pyrimidine]
- melting point: 216 °C
- n-fold stimulation at c = 50 μM [1]: 35 fold

SMILES: CCCN(CCC)c1nc(-c2ccc(Cl)cc2)nc2c1CCC2 [Example 35, 2-(4-Chlorophenyl)-4-dipropylamino-6,7-dihydro-5H-cyclopenta[d]pyrimidine]
- melting point: 114 °C
- n-fold stimulation at c = 50 μM [1]: 7 fold

SMILES: CCCCNc1nc(-c2ccc(C)cc2)nc2c1CCC2 [Example 40, 2-(4-Methylphenyl)-4-butylamino-6,7-dihydro-5H-cyclopenta[d]pyrimidine]
- melting point: 133 °C
- n-fold stimulation at c = 50 μM [1]: 8 fold

SMILES: Cc1ccc(-c2nc3c(c(NC4CCCC4)n2)CCC3)cc1 [Example 41, 2-(4-Methylphenyl)-4-cyclopentylamino-6,7-dihydro-5H-cyclopenta[d]pyrimidine]
- melting point: 183 °C
- n-fold stimulation at c = 50 μM [1]: 9 fold

SMILES: Cc1ccc(-c2nc3c(c(NC4CCCCC4)n2)CCC3)cc1 [Example 42, 2-(4-Methylphenyl)-4-cyclohexylamino-6,7-dihydro-5H-cyclopenta[d]pyrimidine]
- melting point: 163 °C
- n-fold stimulation at c = 50 μM [1]: 10 fold

SMILES: Cc1ccc(-c2nc3c(c(N[C@H]4CC[C@H](O)CC4)n2)CCC3)cc1 [Example 43, 2-(4-Methylphenyl)-4-(trans-4-hydroxycyclohexylamino)-6,7-dihydro-5H-cyclopenta[d]pyrimidine]
- melting point: 191 °C
- n-fold stimulation at c = 50 μM [1]: 23 fold

SMILES: CCCN(CCC)c1nc(-c2ccc(C)cc2)nc2c1CCC2 [Example 45, 2-(4-Methylphenyl)-4-dipropylamino-6,7-dihydro-5H-cyclopenta[d]pyrimidine]
- melting point: 117 °C
- n-fold stimulation at c = 50 μM [1]: 7 fold

SMILES: OCCCCNc1nc(-c2cc(Cl)cc(Cl)c2)nc2c1CCC2 [Example 48, 2-(3,5-Dichlorophenyl)-4-(4-hydroxybutylamino)-6,7-dihydro-5H-cyclopenta[d]-pyrimidine]
- melting point: 142 °C
- n-fold stimulation at c = 50 μM [1]: 9 fold

SMILES: CCCCNc1nc(-c2cc(Cl)cc(Cl)c2)nc2c1CCC2 [Example 49, 2-(3,5-Dichlorophenyl)-4-butylamino-6,7-dihydro-5H-cyclopenta[d]pyrimidine]
- melting point: 93 °C
- n-fold stimulation at c = 50 μM [1]: 5 fold

SMILES: Clc1cc(Cl)cc(-c2nc3c(c(NC4CCCC4)n2)CCC3)c1 [Example 50, 2-(3,5-Dichlorophenyl)-4-cyclopentylamino-6,7-dihydro-5H-cyclopenta[d]-pyrimidine]
- melting point: 153 °C
- n-fold stimulation at c = 50 μM [1]: 8 fold
